Reference: US7662361B2, “Methods and compositions for modulating drug activity through telomere damage” (priority 1999, dated 2010)
pIC50: −log10 of the molar value.

Assays:
[1] = tested on: FaDu cells; experiment: Externalization of phosphatidylserine (Annexin V); type: cell-based, human; settings: 200 nM paclitaxel
Description: Externalization of phosphatidylserine. Apoptotic cells lose membrane phospholipid asymmetry and expose phosphatidylserine on the outer leaflet of plasma membrane. The externalized phosphatidylserine was labeled with Annexin V attached to a fluorescence probe FITC (green fluorescence), using the ApoAlert Annexin V assay (Clontech). As apoptosis progresses, propidium iodide penetrates the cell membrane and stains the cytoplasm (yellow-red stain). Briefly, cells were suspended in binding buffer, incubated with Annexin V-FITC and propidium iodide for 5-15 min in the dark, and examined by fluorescence microscopy. Cells labeled with FITC and/or propidium iodide were scored.

[2] = tested on: FaDu cells; experiment: SRB paclitaxel cytotoxicity in hTR antisense transfected cells; type: cell-based; settings: Homo sapiens, +antisense + IPTG cells (IPTG 44 days), paclitaxel 96 hours, read-out: IC50 of paclitaxel, clone #1
Description: In vitro drug activity evaluation. Drug effect was measured in three ways, i.e., by enumerating the number of cells that remained attached in culture flask, by enumerating the number of cells that detached from the growth surface, and changes in levels of apoptosis. The first measurement represents the overall drug effect, i.e., the combination of cytostatic and cytotoxic effects, whereas the latter two measurements reflect the cytotoxic effect. The remaining cell number after drug treatment was measured using the sulforhodamine B (SRB) assay which stains for cellular protein (Skehan P et al. (1990) J Natl Cancer Inst 82:1107-1112).
In brief, cells were seeded onto 96-well plates. To avoid changes in drug concentration caused by excessive evaporation of medium in wells located at the edge of the plate only the inner wells in 96-well plates were used. The outer wells contained only tissue culture media to serve as blanks. […] The amount of SRB was measured by absorbance at 490 nm using an EL 340 microplate biokinetics reader (Bio-Tek Instruments, Inc., Winooski, Vt.). The absorbance is proportional to the number of cells attached to the culture plate. […]
Effect of hTR antisense on the cytotoxic effect of paclitaxel. […] The cytotoxic effect of paclitaxel was quantified using the SRB method which measures the total cellular proteins. […]

[3] = tested on: SKOV3 cells; experiment: TALA telomere length after paclitaxel treatment; type: cell-based, human; settings: 200 nM paclitaxel
[4] = tested on: PC3 cells; experiment: Time course of apoptotic changes (caspase 3, PARP cleavage, DNA fragmentation, DNA-histone release); type: cell-based, human; settings: 20 nM paclitaxel
Description: Caspase Activity. The activity of Caspase 3 was measured using the ApoAlert CPP32 assay (Clontech Laboratories, Palo Alto, Calif.). Briefly, 1×10^6 cells were lysed using the lysis buffer provided in the assay kit. The lysate was stored at −20° C. and analyzed within 1 week. Enzyme activity was detected by the cleavage of the substrate, Asp-Glu-Val-Asp-7-amino-4-trifluoromethyl coumarin (DEVD-AFC) to AFC, which emits a yellow-green fluorescence at 505 nm. The increase in caspase activity is measured as the ratio of the fluorescence intensity of a agent-treated sample (e.g., paclitaxel) to that of control cells collected at the same time.
PARP Cleavage. […] PARP cleavage was analyzed by immunoblotting. […] Protease inhibitors were used to minimize proteolytic cleavage of PARP during processing. […] Samples were sonicated on ice, resuspended using a 21 gauge needle, and then incubated at 75° C. for 15 min. After centrifugation, an aliquot representing 1.5×10^5 cells was loaded on a 10% SDS polyacrylamide gel and run at 30 mA overnight. The gel was transferred onto a […] nitrocellulose membrane by electroblotting. The membrane was incubated with blocking solution (5% non-fat dry milk in PBS containing 0.1% Tween 20) for 1 hr, followed by incubation with the PARP monoclonal antibody overnight at 4° C. and subsequently the anti-mouse immunoglobulin. After washing the membrane in PBS twice for 5 min each and once for 30 min, the immunoreactive bands were visualized by incubation of the membrane with the chemiluminescence immunoblot kit.
Release of DNA-Histone Complex to Cytoplasm. The level of DNA-histone mono- and oligonucleosomes in the cytoplasm was measured using the cell death detection ELISA kit. Briefly, 5000 cells were lysed in the lysis buffer. The cytoplasmic fractions of the lysates were placed in a […] precoated with mouse antihistone primary antibody and mouse anti-DNA antibody conjugated to peroxidase. The peroxidase substrate, 2,2′-azido-di-[3-ethylbenzthiazoline sulfonate], was applied and the absorbance at 405 nm was measured.
DNA Fragmentation. […] DNA was extracted twice with phenol/chloroform (1:1) and once with chloroform, and precipitated by adding 0.2 volume 10 M […] and 2 volumes ethanol. The pellet obtained after centrifugation was resuspended in 100 mM Tris-HCl and 10 mM EDTA (pH 8.0). The amount of DNA was measured by the absorbance at 260 nm, using a spectrophotometer. Samples showing a 260:280 absorbance ratio of >1.8, which ascertained the purity of the isolated DNA, were analyzed by gel electrophoresis. […] The DNA laddering pattern was visualized by UV transillumination and photographed.

[5] = tested on: solid tumors; settings: Gan et al (1996); read-out: concentration that caused 50% cytotoxicity in solid tumors; cited from earlier work

CC(=O)O[C@H]1C(=O)[C@@]2(C)[C@H]([C@H](OC(=O)c3ccccc3)[C@]3(O)C[C@H](OC(=O)[C@H](O)[C@@H](NC(=O)c4ccccc4)c4ccccc4)C(C)=C1C3(C)C)[C@]1(OC(C)=O)CO[C@@H]1C[C@@H]2O [paclitaxel]
fraction labeled for externalized phosphatidylserine ([1]; attached cells): 6-8%
time at which labeled fraction became significantly higher than untreated controls ([1]; detached cells): 12 h
fraction labeled for externalized phosphatidylserine ([1]; detached cells, 24 hr): 60%
pIC50 [2]: 8.89
shortening of telomeric length ([3]; 24 hr, compared to untreated controls): 13%
telomere shortening on extending treatment ([3]; 36 hr): did not produce a greater telomere shortening
caspase activation, time of occurrence ([4]; attached cells): 24 h
PARP cleavage completed ([4]; detached cells): < 72 h
PARP cleavage first detected ([4]; detached cells): 24 h
caspase activation first detected ([4]; detached cells): 12 h
caspase activation peak ([4]; detached cells): 36 h
internucleosomal DNA fragmentation and release of DNA-histone complex first detected ([4]; detached cells): 24 h
pIC50 [5]: 6.00
